Laboratory results published in article PMC4382154, “Screening of the Pan-African Natural Product Library Identifies Ixoratannin A-2 and Boldine as Novel HIV-1 Inhibitors” (PLoS ONE, 2015).
Structures can show the parent of a compound that is named as a salt. Where two headings read alike, the source gives them in different places.

Key:
[1] = Cell toxicity in HIV-1 infected CEM-GXR cultures (forward/side scatter); type: cell-based; settings: human, HIV-1NL4-3-infected CEM-GXR cells (CD4+ T-lymphocyte line), Day 4
Procedure: (§1) CEM-GXR cells are an immortalized CD4+ T-lymphocyte line engineered that naturally express the HIV-1 coreceptor CXCR4 and have been further engineered to express the HIV-1 co-receptor CCR5 and a Tat-driven LTR-GFP expression cassette. As such, intracellular GFP expression indicates HIV-1 infection. Cultures of 10^5 CEM-GXR cells were seeded into 96-well plates with RPMI-1640 media (Sigma) supplemented with penicillin/streptomycin plus 20% fetal calf serum (R20+), infected with HIV-1 at a multiplicity of infection of 0.03 (to achieve 3% infected cells on Day 2), and incubated at 37°C and 5% CO2. 24 hours later, cells were pelleted at 750 g and resuspended in R20+ containing compound or 0.1% DMSO. […] Cells were then incubated at 37°C and 5% CO2 for an additional 72 h. 5,000 cells from each culture were measured for cell toxicity and GFP expression by flow cytometry. Flow cytometry data were analyzed using FlowJo v. 8.8.7 software (FlowJo LLC, Ashland, OR). […] Background GFP expression in uninfected cultures was set at 0.05% GFP-positive cells. For each experiment, all data points were obtained in triplicate. All data are reported as the mean ± s.e.m. from at least 3 independent experiments performed with different virus stocks and/or performed on different days. However, all experiments that compare HIV-1NL4-3 and mutant HIV-1 were performed in parallel. EC50 and CC50 values for each compound were calculated from at least four concentrations. Statistical analyses were performed using Student’s unpaired t test, with a p value < 0.05 plus a Bonferroni correction to adjust for multiple comparisons considered significant.
(§2) To assess the effects of these eight compounds on cell viability and HIV-1 replication, we infected a GFP-reporter CEM CD4+ T cell line (CEM-GXR) with the NL4-3 strain of HIV-1 (HIV-1NL4-3). Briefly, cells were infected with HIV-1NL4-3 at a multiplicity of infection of 0.03 (Day 0), followed by removal of HIV-1 and addition of compound (or 0.1% DMSO vehicle control) 24 hours later (Day 1) and incubation for an additional 72 hours to allow HIV-1 spread (Days 2–4). On Days 2 and/or 4, the percent HIV-1 infected (i.e., GFP-expressing) cells was measured by flow cytometry. Cell viability was assessed by measuring the percentage of cells displaying normal forward- and side-scatter parameters in drug-treated, HIV-1 infected cultures compared to 0.1% DMSO-treated, HIV-1 infected control cultures. […] HIV-1NL4-3 replication was unaffected by the presence of 0.1% DMSO vehicle control (Fig. 2B).

[2] = system: HIV-1NL4-3; assay: microbe, parasite or virus in culture; type: cell-based; settings: for HIV-1 inhibition in the viral replication assay (in words): up to 100 μM; for EC50: read-out: HIV-1NL4-3 inhibition (EC50); for replication of HIV-1NL4-3 in CEM-GXR cells (in words): 0.1 μM
Procedure: as §1, §2

[3] = system: monocyte derived macrophages; settings: cited from earlier work
[4] = system: HIV-1NL4-3; assay: HIV-1 replication assay in PBMCs (p24Gag ELISA); type: cell-based; settings: 10 μM, Day 12
Procedure: PBMCs from HIV-1 negative subjects, purchased commercially (StemCell Technologies, Vancouver, Canada), were maintained in RPMI-1640 media (Sigma) supplemented with penicillin/streptomycin plus 10% fetal calf serum (R10+). 72 h prior to viral infection, PBMCs were stimulated by addition of 5 μg/mL phytohaemaglutanin (PHA) (Day 0) and maintained in R10+ medium supplemented with 100 units/mL human IL-2. At Day 3 following cellular activation, 3x10^5 cells were infected with HIV-1NL4-3 at a multiplicity of infection of 0.003 (0.3% infected cells) and incubated at 37°C for 6h, followed by wash and re-suspension in fresh R10+ medium supplemented with 100 units/mL human IL-2 and with or without compounds at defined concentrations. Culture supernatants were collected and replaced with fresh medium supplemented with human IL-2 every 3 days (i.e., Days 6, 9, and 12) with or without fresh compounds. Viral replication at day 12 was monitored by measuring cell culture supernatant levels of p24^Gag by ELISA (XpressBio, Frederick, MD) following manufacturer’s instructions.

[5] = system: HCV J4(1b)/JFH1(2a) chimera; assay: HCV replication assay in Huh-7.5 cells (NS5A flow cytometry); type: cell-based; settings: Hepatitis C virus, Huh7.5, 72 h, read-out: inhibition of HCV replication
Procedure: The intergenotypic chimeric HCV used in this study—Bi-Gluc-J4(1b)/JFH1(2a) containing cell culture adaptive mutations in NS2 (T2996C) and NS3 (A4827T)—was previously described and subsequently modified to express Gaussia luciferase in the first cistron. HCV stocks used for infection were generated by electroporation of in vitro transcribed RNA into Huh-7.5.1 cells and pooling of supernatants harvested between 60–96 hr post-electroporation. HCV infectivity was determined by limiting dilution assay as previously described.
HCV cell culture was performed as described previously. Briefly, 4*10^4 Huh-7.5 cells were seeded into 24-well plates and incubated at 37°C and 5% CO2 overnight. Cells were then infected with HCV (multiplicity of infection = 0.3) for 6 hours, followed by removal of HCV and incubation with fresh medium containing compounds at stated concentrations. Cultures were then incubated for 72 hours, with no more than 0.1% DMSO present in culture medium. Cells were then trypsinized, resuspended in culture medium, and stained with the 9E10 alexa-fluor-conjugated antibody to NS5A [27]. Cells were fixed and analyzed for NS5A fluorescence by flow cytometry, and data were analyzed using FlowJo software. […] For each culture, NS5A fluorescence was determined as the percent gated cells relative to percent gated cells in infected cultures plus 0.1% DMSO. All experiments were performed in at least duplicate in at least two independent experiments.
We therefore assessed the effects of ixoratannin A-2, boldine, and BIT-225 on replication of HCV, which also encodes a viral ion channel and protease. Using an established cell culture system, Huh-7.5 cells were infected with an intergenotypic chimera between the J4 (genotype 1b) and JFH1 (genotype 2a) strain of HCV for 6 hours, followed by incubation with fresh medium containing compounds at defined concentrations. Infected cells were then incubated for an additional 72 hours. NS5A expression, a marker of HCV infection, was then detected by flow cytometry.

[6] = in vitro; type: cell-based; settings: human
[7] = system: Madin-Darby bovine kidney cells; set-up: method as in PMID 20832370; settings: read-out: CC50 in bovine viral diarrhea virus-infected Madin-Darby bovine kidney cells; cited from earlier work
[8] = PBMC cytotoxicity (ViaCount Assay); type: cell-based; settings: human, PHA-activated PBMCs; Day 5, ViaCount
Procedure: Cytotoxicity was determined by ViaCount Assay (Millipore). Briefly, Day 3 PHA-activated PBMCs (3*10^5) were cultured in R10+ supplemented with 100 units/mL human IL-2 in the presence of 0.1% DMSO or compounds at defined concentrations. At Day 5, 15 μL of each PBMC culture was mixed with Guava ViaCount Reagent at a 1:10 dilution. Data were collected using a Guava EasyCyte HT Flow Cytometer (Millipore).

[9] = system: SupT1 and CEM-SS cells; settings: cited from earlier work
[10] = system: HIV-1PR+RT; assay: HIV-1PR+RT replication in CEM-GXR cells; type: cell-based; settings: 0.1 μM, CEM-GXR cells, Day 4
Procedure: (§3) HIV-1Δvpu was constructed by digesting plasmid p210-13 3’ Δ-vpu with EcoRI and NheI enzymes. The resulting DNA fragment was then ligated into wild-type pNL4-3 plasmid digested with the same enzymes. HIV-1Δvpu and HIV-1NL4-3 viral stocks were prepared by transfection of HEK-293T cells, as previously described. Patient plasma-HIV-1 RNA sequences were analyzed for resistance mutations using the HIV Drug Resistance Database Genotype Resistance Interpretation Algorithm (hivdb.stanford.edu). Recombinant HIV-1NL4-3 expressing patient-derived HIV-1 sequences harboring resistance mutations to protease and reverse transcriptase inhibitors (HIV-1PR+RT), reverse transcriptase inhibitors (HIV-1RT), and integrase inhibitors (HIV-1INT) were generated by homologous recombination following co-transfection as reported.
as §1
(§4) To investigate the mechanisms by which ixoratannin A-2 and boldine may block HIV-1 replication, we used a previously-reported HIV-1NL4-3 strain lacking the Vpu coding region (HIV-1Δvpu). We also constructed recombinant HIV-1NL4-3 strains harboring protease, reverse transcriptase, and/or integrase sequences of HIV-1 strains from patients who had developed resistance to the protease inhibitor Indinavir (IND), the non-nucleoside reverse transcriptase inhibitor Efavirenz (EFV), and/or the integrase inhibitor Raltegravir (RAL) (denoted HIV-1PR+RT, HIV-1RT, and HIV-1INT, respectively). Re-sequencing of the recombinant viruses confirmed the presence of multiple mutations known to confer resistance to IND, EFV, and/or RAL (Table 2).

[11] = system: HIV-1Δvpu; assay: HIV-1Δvpu replication in CEM-GXR cells; type: cell-based; settings: 0.1 μM, Day 4
Procedure: as §3, §1, §4

[12] = system: HIV-1RT; assay: microbe, parasite or virus in culture; type: cell-based; settings: 0.1 μM, CEM-GXR cells, Day 4
Procedure: CEM-GXR cells are an immortalized CD4+ T-lymphocyte line engineered that naturally express the HIV-1 coreceptor CXCR4 and have been further engineered to express the HIV-1 co-receptor CCR5 and a Tat-driven LTR-GFP expression cassette. As such, intracellular GFP expression indicates HIV-1 infection [26]. Cultures of 10^5 CEM-GXR cells were seeded into 96-well plates with RPMI-1640 media (Sigma) supplemented with penicillin/streptomycin plus 20% fetal calf serum (R20+), infected with HIV-1 at a multiplicity of infection of 0.03 (to achieve 3% infected cells on Day 2), and incubated at 37°C and 5% CO2. 24 hours later, cells were pelleted at 750 g and resuspended in R20+ containing compound or 0.1% DMSO. […] Cells were then incubated at 37°C and 5% CO2 for an additional 72 h. 5,000 cells from each culture were measured for cell toxicity and GFP expression by flow cytometry. […] Background GFP expression in uninfected cultures was set at 0.05% GFP-positive cells. For each experiment, all data points were obtained in triplicate. All data are reported as the mean ± s.e.m. from at least 3 independent experiments performed with different virus stocks and/or performed on different days. […] EC50 and CC50 values for each compound were calculated from at least four concentrations. Statistical analyses were performed using Student’s unpaired t test, with a p value < 0.05 plus a Bonferroni correction to adjust for multiple comparisons considered significant.

[13] = system: CEM-GXR cells; assay: Cell toxicity in HIV-1 infected CEM-GXR cultures (forward/side scatter); type: cell-based; settings: HIV-1NL4-3-infected CEM-GXR cells, Day 4
Procedure: as §1, §2

[14] = system: HIV-1INT; assay: HIV-1INT replication in CEM-GXR cells; type: cell-based; settings: 0.1 μM, CEM-GXR cells, Day 4
Procedure: as §3, §1, §4

[15] = Human immunodeficiency virus 1, 96 h, CEM-GXR cells, Day 4

Row | Structure (SMILES) | CC50 at 72 h [1] [µM] | HIV-1 inhibition in the viral replication assay (in words) ([2]; CEM-GXR cells) | EC50 [2, 15] [µM] | replication of HIV-1Δvpu in CEM-GXR cells (in words) [11] | replication of HIV-1NL4-3 in CEM-GXR cells (in words) ([2]; Day 4) | also measured
1 | CC(=O)c1c(O)cc(OC2OC(O)C(O)C(O)C2O)c(-c2c(C)cc(O)c3c2C(=O)c2cccc(O)c2C3=O)c1O (stereo not drawn) [2MA, 1-(3-acetyl-2,4-dihydroxy-6-((3,4,5,6-tetrahydroxytetrahydro-2H-pyran-2-yl)oxy)phenyl)-4,5-dihydroxy-2-methylanthracene-9,10-dione] | 50.9 | did not inhibit HIV-1 | > 100 | – | – | –
2 | Cn1cc(-c2cccc3cc(C(=O)NC(=N)N)ccc23)cn1 [BIT-225, reference compound] | 10.7 | – | – | – | – | CC50 [3]: 167 to 284 µM; reduced HIV-1 replication in PBMCs (p24Gag) [4]: 31.8%; inhibition at 30 µM [5]: 37.5%; CC50 at 72 h [6]: 52.9 µM; CC50 [7]: 11.6 µM; CC50 [8]: 12.8 µM; CC50 [9]: 32 to 67 µM
3 | O=c1oc2c(O)c(O)cc3c(=O)oc4c(O)c(O)cc1c4c23 [EA, ellagic acid] | 52.3 | did not observe these activities | > 100 | – | – | –
4 | O=C(O[C@@H]1Cc2c(O)cc(O)cc2O[C@@H]1c1ccc(O)c(O)c1)c1cc(O)c(O)c(O)c1 [ECG, epicatechin gallate] | > 100 | did not observe antiviral activity | > 100 | – | – | –
5 | O=C1Nc2ccc(Cl)cc2[C@@](C#CC2CC2)(C(F)(F)F)O1 [EFV, Efavirenz, reference compound] | – | – | – | inhibited | inhibited | HIV-1PR+RT replication fold higher than HIV-1NL4-3 [10]: 2.6 fold; HIV-1RT replication fold greater than HIV-1NL4-3 [12]: 3.4 fold
6 | CC(C)(C)NC(=O)[C@@H]1CN(Cc2cccnc2)CCN1C[C@@H](O)C[C@@H](Cc1ccccc1)C(=O)N[C@H]1c2ccccc2C[C@H]1O [IND, Indinavir, reference compound] | – | – | – | inhibited | inhibited | HIV-1PR+RT replication fold higher than HIV-1NL4-3 [10]: 2.7 fold
7 | COc1cc2ccc3c(OC)c(O)ccc3c2c(OC)c1O [PA, 1,5,7-trimethoxyphenanthrene-2,6-diol] | < 30 | – | – | – | – | CC50 [13]: 26.8 µM
8 | Cc1nnc(C(=O)NC(C)(C)c2nc(C(=O)NCc3ccc(F)cc3)c(O)c(=O)n2C)o1 [RAL, Raltegravir, reference compound] | – | – | – | inhibited | inhibited | HIV-1INT replication fold higher than HIV-1NL4-3 [14]: 1.7 fold
9 | O=C1OCc2cc3cccc(OC4OC(CO)C(O)C(O)C4O)c3c(O)c21 (stereo not drawn) [geshoidin] | > 10 | did not inhibit HIV-1 | – | – | – | EC50 ([2]; Human immunodeficiency virus 1, CEM-GXR, 96 h): > 100 µM
10 | CC(N)C12CC3CC(CC(C3)C1)C2 (stereo not drawn) [rimantadine, rimantadine hydrochloride, reference compound] | – | – | – | – | – | inhibition at 50 µM [5]: 40.7%
